In publication PMC8621172, “Manipulating Estrogenic/Anti-Estrogenic Activity of Triphenylethylenes towards Development of Novel Anti-Neoplastic SERMs” (International Journal of Molecular Sciences, 2021):
Entries after “also recorded” stand apart in the source; their conditions may differ.

How the values were obtained:
Hs578T = experiment: NCI five-dose assay, TNBC cell line Hs578T; format: cell-based, human
Protocol: (§1) All compounds were subjected to the NCI in vitro disease-oriented human cells screening panel assay. The human tumor cell lines of the cancer-screening panel are grown in RPMI 1640 medium containing 5% fetal bovine serum and 2 mM L-glutamine. For a typical screening experiment, cells are inoculated into 96-well microtiter plates in 100 μL at plating densities ranging from 5000 to 40,000 cells/well depending on the doubling time of individual cell lines. After cell inoculation, the microtiter plates are incubated at 37 °C, 5% CO2, 95% air, and 100% relative humidity for 24 h prior to the addition of experimental drugs. After 24 h, two plates of each cell line are fixed in situ with TCA to represent a measurement of the cell population for each cell line at the time of drug addition. Experimental drugs are solubilized in dimethyl sulfoxide at 400-fold the desired final maximum test concentration and stored frozen prior to use. At the time of drug addition, an aliquot of frozen concentrate is thawed and diluted to twice the desired final maximum test concentration with complete medium containing 50 μg/mL gentamicin. Additional four, 10-fold, or ½ log serial dilutions are made to provide a total of five drug concentrations plus control. Aliquots of 100 μL of these different drug dilutions are added to the appropriate microtiter wells already containing 100 μL of medium, resulting in the required final drug concentrations. Following drug addition, the plates are incubated for an additional 48 h at 37 °C, 5% CO2, 95% air, and 100% relative humidity. For adherent cells, the assay is terminated by the addition of cold TCA. Cells are fixed in situ by the gentle addition of 50 μL of cold 50% (w/v) TCA (final concentration, 10% TCA) and incubated for 60 min at 4 °C. […] Bound stain is subsequently solubilized with a 10 mM trizma base, and the absorbance is read on an automated plate reader at a wavelength of 515 nm. […] Three response parameters (GI50, TGI, and LC50) were calculated for each cell line.

[1] = system: Ishikawa endometrial adenocarcinoma cell line; experiment: Alkaline phosphatase (AlkP) activity in Ishikawa cells; format: cell-based, human; settings: for Relative alkaline phosphatase activity: 72 h, DMSO set to 1; for effect on AlkP activity (in words): 72 h treatment, 5-dose assay 1 nM to 10 µM
Protocol: Alkaline phosphatase (AlkP) activity in these human endometrial cancer cells is markedly stimulated by estrogens.
Because of the potential SERM character of the compounds tested, their estrogenic effects were studied in an endometrial-derived cell culture model, the human endometrial adenocarcinoma cell line Ishikawa. […] All compounds were screened at two concentrations, 0.1 and 1 µM. Its agonistic effect was compared to the vehicle control DMSO (data shown in Supplementary Materials). […] The four compounds were studied in a concentration range of 1 nM to 10 µM.
Estrogens stimulate the activity of alkaline phosphatase (AlkP) in Ishikawa cells (human endometrial adenocarcinoma cells; kindly provided by Prof. Masato Nishida, National Hospital Organization, Kasumigaura Medical Center, Japan). This enzyme activity is estimated by using the chromogen substrate (4-nitrophenylphosphate). […] The procedure was modified by Littlefield et al., 1990 [42].
After 72 h incubation, cells were harvested, washed twice with PBS, and incubated at −80 °C for about 30 min to lyse the cells. After thawing, the lysates were resuspended in reaction buffer (274 mM mannitol, 100 mM CAPS, 4 mM MgCl2, pH 10.4) containing 4 mM p-nitrophenylphosphate (NPP). After incubation for 1 h in the dark, AlkP activity was assayed by using the hydrolysis of p-nitrophenylphosphate to p-nitrophenol at pH 10.4 and the spectrometric determination of the kinetic of the product formation at 405 nm. All compounds were tested in technical triplicates and biological triplicates. Statistical analysis was performed by analysis of variance (ANOVA) and Tukey’s post-hoc test with the significance level of p < 0.05.

ovariectomized rats = experiment: Uterotrophic assay in ovariectomized rats; format: in vivo, rat; settings: for uterotrophic effect (in words): compared to TAM; for Relative uterus wet weight: s.c. 10 mg/kg/d BW for three days
Source text: Compounds showing appreciable estrogenic activity in the YES assay and that were able to inhibit the growth of MCF-7 cancer cell lines yet with low estrogenic activity on Ishikawa endometrial adenocarcinoma cells might serve as potential ideal SERMS. Compounds 12 and 19 were therefore selected for the in vivo experiments to assess their estrogenic properties in an uterotrophic assay in an ovariectomized rat model. The in vivo uterotrophic rat assay is the gold standard assay to test for the estrogenic effect of compounds; the assay uses adult ovariectomized (OVX) female rats where there is no significant source of endogenous estrogens. Compounds that have estrogenic effects cause uterotrophic response due to the imbibition of water and growth of the uterine cells. Statistically significant uterine weight increases compared to controls provide a positive result. Adopting both in vivo and in vitro assays was inevitable due to the limitations of each assay. The cell lines are not properly able to recapitulate the in vivo environment of the uterus within the body. On the other hand, the rat uterotrophic assay merely considers the uterine weight gain as an endpoint of estrogenicity without taking into account all factors that play a role in exerting an estrogenic effect on the organ and body.
The most common short-term in vivo assay for estrogenicity/anti-estrogenicity is the uterotrophic assay, suitable for screening ERα agonists and antagonists. The primary endpoint is the uterine wet weight (UWW). An increase in UWW indicates an estrogenic activity of the test compound. Compounds 12 and 19 were screened using the in vivo uterotrophic assay.
The most common short-term in vivo assay for (anti)-estrogenicity is the uterine growth test, suitable for screening ERα agonists and antagonists. The primary endpoint is the uterine wet weight (UWW). An increase in UWW indicates an estrogenic activity of the test compound [43]. Sprague Dawley female rats (170–200 g) were obtained from the animal colony of the National Institute of Research (Cairo, Egypt). The rats were housed in a temperature-controlled room (23–24 °C) with a 12 h light:dark cycle and with free access to food and water. They were allowed to acclimatize to the animal house of the German University in Cairo for at least 1 week before initiating the experiments. All efforts were made to minimize animal discomfort and suffering. Animals were ovariectomized. After 14 days of endogenous hormonal decline, the animals were subcutaneously treated for three days with respective compounds. The animals were randomly allocated to treatment and vehicle groups (n = 6). […] The uterus wet weight was determined.

NSCLC cell lines = experiment: NCI five-dose assay, NSCLC subpanel; format: cell-based; settings: Homo sapiens
Protocol: as §1, with “gentamicin.” for “gentamicin. Additional four, 10-fold, or ½ log serial dilutions are made to provide a total of five drug concentrations plus control. Aliquots of 100 μL of these different drug dilutions are added to the appropriate microtiter wells already containing 100 μL of medium, resulting in the required final drug concentrations. Following drug addition, the plates are incubated for an additional 48 h at 37 °C, 5% CO2, 95% air, and 100% relative humidity. For adherent cells, the assay is terminated by the addition of cold TCA. Cells are fixed in situ by the gentle addition of 50 μL of cold 50% (w/v) TCA (final concentration, 10% TCA) and incubated for 60 min at 4 °C.”

renal cell lines = experiment: NCI five-dose assay, renal subpanel; format: cell-based; settings: Homo sapiens
Protocol: as §1, with “gentamicin.” for “gentamicin. Additional four, 10-fold, or ½ log serial dilutions are made to provide a total of five drug concentrations plus control. Aliquots of 100 μL of these different drug dilutions are added to the appropriate microtiter wells already containing 100 μL of medium, resulting in the required final drug concentrations. Following drug addition, the plates are incubated for an additional 48 h at 37 °C, 5% CO2, 95% air, and 100% relative humidity. For adherent cells, the assay is terminated by the addition of cold TCA. Cells are fixed in situ by the gentle addition of 50 μL of cold 50% (w/v) TCA (final concentration, 10% TCA) and incubated for 60 min at 4 °C.”

prostate cell lines = experiment: NCI five-dose assay, prostate subpanel; format: cell-based; settings: Homo sapiens
Protocol: as §1, with “gentamicin.” for “gentamicin. Additional four, 10-fold, or ½ log serial dilutions are made to provide a total of five drug concentrations plus control. Aliquots of 100 μL of these different drug dilutions are added to the appropriate microtiter wells already containing 100 μL of medium, resulting in the required final drug concentrations. Following drug addition, the plates are incubated for an additional 48 h at 37 °C, 5% CO2, 95% air, and 100% relative humidity. For adherent cells, the assay is terminated by the addition of cold TCA. Cells are fixed in situ by the gentle addition of 50 μL of cold 50% (w/v) TCA (final concentration, 10% TCA) and incubated for 60 min at 4 °C.”

Row | Structure (SMILES) | anti-proliferative activity compared to TAM (Hs578T) | Relative alkaline phosphatase activity ([1]; 1 nM) | Relative alkaline phosphatase activity ([1]; 10 nM) | Relative alkaline phosphatase activity ([1]; 100 nM) | Relative alkaline phosphatase activity ([1]; 10 µM) | effect on AlkP activity (in words) [1] | uterotrophic effect (in words) (ovariectomized rats) | Relative uterus wet weight (ovariectomized rats) | Relative alkaline phosphatase activity ([1]; 1 µM) | GI50 (NSCLC cell lines) | GI50 (renal cell lines) | GI50 (prostate cell lines)
1 | COc1ccc(C(C)=C(c2ccc(Cl)cc2)c2ccc(OCCN3CCCCCC3)cc2)cc1F [Compound 19, E/Z-1-(2-{4-[1-(4-Chlorophenyl)-2-(3-fluoro-4-methoxyphenyl)-propenyl]-phenoxy}-ethyl)-azepane] | more potent than TAM | 1.02 ± 0.13 | 1.06 ± 0.11 | 1.75 ± 0.08 | 0.04 ± 0.04 | increase the AlkP activity in a dose-pendent manner | less increase in UWW | 1.15 ± 0.18 g/kg BW |  |  |  | 
2 | COc1ccc(C(C)=C(c2ccc(Cl)cc2)c2ccc(OCCN3CCCCC3)cc2)cc1F [Compound 17, E/Z-1-(2-{4-[1-(4-Chlorophenyl)-2-(3-fluoro-4-methoxyphenyl)-propenyl]-phenoxy}-ethyl)-piperidine] | more potent than TAM |  |  |  |  |  |  |  | 1.31 ± 0.41 |  |  | 
3 | CCN(CC)CCOc1ccc(C(=C(C)c2ccc(F)c(OC)c2)c2ccc(Cl)cc2)cc1 [Compound 28, E/Z-(2-{4-[1-(4-Chlorophenyl)-2-(4-fluoro-3-methoxyphenyl)-propenyl]-phenoxy}-ethyl)-diethyl-amine] | more potent than TAM |  |  |  |  |  |  |  |  | 2340 nM | 2400 nM | 2310 nM
4 | COc1ccc(C(C)=C(c2ccc(Cl)cc2)c2ccc(OCCN3CCCCC3)cc2)cc1 [Compound 12, E/Z-1-(2-{4-[1-(4-Chloro-phenyl)-2-(4-methoxy-phenyl)-propenyl]-phenoxy}-ethyl)-piperidine] |  | 0.95 ± 0.02 | 0.96 ± 0.01 | 1.14 ± 0.01 | 0.42 ± 0.13 | increase the AlkP activity in a dose-pendent manner | no uterotrophic effect; also recorded: less increase in UWW | 1.23 ± 0.18 g/kg BW |  |  |  | 
